Test results from ChEMBL document CHEMBL1153700, “Synthesis and SAR of novel, non-MPEP chemotype mGluR5 NAMs identified by functional HTS” (Bioorg Med Chem Lett, 2009).
pIC50: −log10 of the molar value.

How the values were obtained:
[1] = biological target: Metabotropic glutamate receptor 5 (Rattus norvegicus, UniProt P31424); experiment: Antagonist activity at rat mGluR5 expressed in human HEK293A cells assessed as inhibition of glutamate-induced calcium flux; assay type: functional, cell-based, HEK293-A
[2] = biological target: Metabotropic glutamate receptor 5 (Rattus norvegicus) (UniProt P31424); experiment: Antagonist activity at rat mGluR5 expressed in human HEK293A cells assessed as inhibition of glutamate-induced calcium flux relative to glutamate; assay type: functional, cell-based; details: HEK293-A
[3] = biological target: Metabotropic glutamate receptor 5 (Homo sapiens, UniProt P41594); experiment: Antagonist activity at mGluR5; assay type: functional
Chain of Metabotropic glutamate receptor 5 (Homo sapiens, UniProt P41594) (P41594 whole entry): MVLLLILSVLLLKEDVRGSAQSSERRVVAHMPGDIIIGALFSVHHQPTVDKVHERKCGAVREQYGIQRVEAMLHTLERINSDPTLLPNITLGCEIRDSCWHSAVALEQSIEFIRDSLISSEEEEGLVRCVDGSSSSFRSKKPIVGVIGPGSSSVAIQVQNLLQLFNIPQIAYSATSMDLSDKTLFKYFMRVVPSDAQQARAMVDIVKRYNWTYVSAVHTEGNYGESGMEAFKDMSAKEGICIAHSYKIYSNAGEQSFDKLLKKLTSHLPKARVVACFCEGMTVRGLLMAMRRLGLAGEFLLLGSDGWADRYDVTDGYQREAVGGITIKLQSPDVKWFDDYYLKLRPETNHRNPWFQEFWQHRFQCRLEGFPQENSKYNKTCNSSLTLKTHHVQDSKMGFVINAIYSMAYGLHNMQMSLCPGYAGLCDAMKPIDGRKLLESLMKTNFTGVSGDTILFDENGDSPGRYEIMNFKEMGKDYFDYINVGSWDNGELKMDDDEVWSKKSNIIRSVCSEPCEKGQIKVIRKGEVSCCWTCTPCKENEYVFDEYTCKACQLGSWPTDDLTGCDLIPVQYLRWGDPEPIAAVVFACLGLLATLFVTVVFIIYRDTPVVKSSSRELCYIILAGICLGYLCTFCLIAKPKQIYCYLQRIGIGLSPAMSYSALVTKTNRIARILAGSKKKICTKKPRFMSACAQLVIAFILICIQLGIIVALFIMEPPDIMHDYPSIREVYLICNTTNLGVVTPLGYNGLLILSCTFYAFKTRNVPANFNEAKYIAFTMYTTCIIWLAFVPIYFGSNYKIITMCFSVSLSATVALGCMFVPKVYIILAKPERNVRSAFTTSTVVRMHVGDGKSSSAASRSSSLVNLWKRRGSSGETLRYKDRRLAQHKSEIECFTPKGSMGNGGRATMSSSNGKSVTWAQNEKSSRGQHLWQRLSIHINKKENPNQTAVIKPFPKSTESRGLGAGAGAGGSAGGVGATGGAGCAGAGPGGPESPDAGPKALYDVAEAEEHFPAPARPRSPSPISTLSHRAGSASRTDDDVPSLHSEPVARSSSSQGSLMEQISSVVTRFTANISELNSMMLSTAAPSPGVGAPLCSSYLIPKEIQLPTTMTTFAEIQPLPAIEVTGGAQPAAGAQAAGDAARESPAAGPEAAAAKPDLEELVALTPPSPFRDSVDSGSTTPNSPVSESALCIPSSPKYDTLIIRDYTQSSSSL

Chain of Metabotropic glutamate receptor 5 (Rattus norvegicus) (P31424 21-1203 limits assumed): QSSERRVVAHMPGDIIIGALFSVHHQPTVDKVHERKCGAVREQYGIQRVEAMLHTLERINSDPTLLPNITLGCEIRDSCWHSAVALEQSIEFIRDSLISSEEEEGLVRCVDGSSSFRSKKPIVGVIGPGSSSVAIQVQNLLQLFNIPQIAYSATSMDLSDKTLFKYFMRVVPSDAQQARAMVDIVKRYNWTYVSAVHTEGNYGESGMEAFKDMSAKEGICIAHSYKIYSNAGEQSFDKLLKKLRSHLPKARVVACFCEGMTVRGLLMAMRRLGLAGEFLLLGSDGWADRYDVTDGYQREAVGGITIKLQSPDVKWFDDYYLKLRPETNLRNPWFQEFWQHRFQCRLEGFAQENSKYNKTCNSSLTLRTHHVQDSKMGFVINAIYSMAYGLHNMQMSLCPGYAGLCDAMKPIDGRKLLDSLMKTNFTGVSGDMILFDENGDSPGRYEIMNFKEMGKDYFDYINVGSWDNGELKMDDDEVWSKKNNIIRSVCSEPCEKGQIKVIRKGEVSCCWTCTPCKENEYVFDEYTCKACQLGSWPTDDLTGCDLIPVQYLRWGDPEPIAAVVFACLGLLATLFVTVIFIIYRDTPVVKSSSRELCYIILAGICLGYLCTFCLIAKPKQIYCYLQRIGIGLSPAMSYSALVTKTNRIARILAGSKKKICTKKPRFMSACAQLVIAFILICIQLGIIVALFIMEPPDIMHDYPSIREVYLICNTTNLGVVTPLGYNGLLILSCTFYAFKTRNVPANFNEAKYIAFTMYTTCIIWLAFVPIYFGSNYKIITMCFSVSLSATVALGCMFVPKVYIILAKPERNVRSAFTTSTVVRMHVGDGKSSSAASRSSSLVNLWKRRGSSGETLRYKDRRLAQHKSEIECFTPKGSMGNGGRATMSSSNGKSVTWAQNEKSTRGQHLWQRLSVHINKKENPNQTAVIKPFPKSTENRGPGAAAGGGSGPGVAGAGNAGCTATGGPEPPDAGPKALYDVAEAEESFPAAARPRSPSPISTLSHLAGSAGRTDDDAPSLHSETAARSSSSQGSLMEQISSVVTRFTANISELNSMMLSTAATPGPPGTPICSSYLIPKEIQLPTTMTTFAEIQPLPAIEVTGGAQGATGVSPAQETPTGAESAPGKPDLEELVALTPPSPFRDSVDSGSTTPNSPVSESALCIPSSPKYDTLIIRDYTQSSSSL
Chain of Metabotropic glutamate receptor 5 (Rattus norvegicus, UniProt P31424) (P31424 whole entry): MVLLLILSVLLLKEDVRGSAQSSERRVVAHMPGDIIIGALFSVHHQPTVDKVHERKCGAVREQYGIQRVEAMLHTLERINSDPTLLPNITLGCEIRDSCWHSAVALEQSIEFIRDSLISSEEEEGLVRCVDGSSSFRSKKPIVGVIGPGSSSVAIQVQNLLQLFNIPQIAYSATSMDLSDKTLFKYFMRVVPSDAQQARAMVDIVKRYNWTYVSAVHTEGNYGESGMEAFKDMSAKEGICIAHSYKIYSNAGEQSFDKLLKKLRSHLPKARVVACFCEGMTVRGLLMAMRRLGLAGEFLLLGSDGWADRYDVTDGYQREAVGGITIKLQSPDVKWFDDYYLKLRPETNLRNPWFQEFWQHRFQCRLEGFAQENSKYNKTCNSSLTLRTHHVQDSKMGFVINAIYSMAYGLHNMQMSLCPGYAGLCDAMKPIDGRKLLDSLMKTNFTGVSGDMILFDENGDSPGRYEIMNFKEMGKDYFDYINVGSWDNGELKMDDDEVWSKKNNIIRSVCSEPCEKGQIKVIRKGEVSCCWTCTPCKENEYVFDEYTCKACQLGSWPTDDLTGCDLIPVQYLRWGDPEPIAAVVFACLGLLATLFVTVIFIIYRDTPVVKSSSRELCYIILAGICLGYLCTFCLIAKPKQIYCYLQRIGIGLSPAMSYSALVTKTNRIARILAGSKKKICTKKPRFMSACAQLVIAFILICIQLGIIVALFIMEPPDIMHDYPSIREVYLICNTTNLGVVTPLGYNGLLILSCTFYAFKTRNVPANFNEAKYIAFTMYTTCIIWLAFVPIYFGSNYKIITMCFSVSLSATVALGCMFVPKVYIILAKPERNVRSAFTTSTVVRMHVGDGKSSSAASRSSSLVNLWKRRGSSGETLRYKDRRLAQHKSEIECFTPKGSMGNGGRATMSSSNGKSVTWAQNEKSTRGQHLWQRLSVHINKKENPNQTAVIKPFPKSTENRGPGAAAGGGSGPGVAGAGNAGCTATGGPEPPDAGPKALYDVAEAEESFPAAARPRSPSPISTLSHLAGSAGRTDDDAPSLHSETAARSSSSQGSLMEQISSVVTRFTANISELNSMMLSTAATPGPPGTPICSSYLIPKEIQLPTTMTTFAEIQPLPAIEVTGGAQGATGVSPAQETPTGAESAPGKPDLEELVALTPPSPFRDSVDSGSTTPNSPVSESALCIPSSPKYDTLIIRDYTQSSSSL

Structure (SMILES)	pIC50 [1]	% Glu Max [2] [%]	pIC50 [3]
COc1ccccc1C(=O)Nc1cccc(NC(=O)c2ccc(Cl)c(Cl)c2)c1	< 4.52		
O=C(Nc1cccnc1)c1cccc(N2C(=O)c3ccccc3C2=O)c1	< 4.52	86	
O=C(Nc1cccc(NC(=O)C2CC2)c1)c1cccc(Cl)c1	5.65	32.3	
CC(=O)Nc1cccc(NC(=O)c2cccc(Cl)c2)c1	5.10	39.6	
COc1ccccc1C(=O)Nc1cccc(NC(=O)C(C)C)c1	< 4.52		
COc1ccccc1C(=O)Nc1cccc(NC(=O)C2CCCC2)c1	< 4.52		
COCC(=O)Nc1cccc(NC(=O)c2ccccc2OC)c1	< 4.52		
COc1ccccc1C(=O)Nc1cccc(NC(=O)C2CCC2)c1	< 4.52		
COc1ccccc1C(=O)Nc1cccc(NC(=O)c2cccc(Cl)c2)c1	6.06	2.6	5.96
O=C(Nc1cccc(NC(=O)c2cccc(Cl)c2)c1)c1cccc(Cl)c1	< 4.52		
COc1ccccc1C(=O)Nc1cccc(NC(=O)C2CC2)c1	< 4.52		
O=C(Nc1cccc(NC(=O)C23CC4CC(CC(C4)C2)C3)c1)c1cccc(Cl)c1	< 4.52		
O=C(NC1CC2CCC1C2)c1cccc(N2C(=O)c3ccccc3C2=O)c1 (stereo not drawn)	< 4.52	71	
COc1ccccc1C(=O)Nc1cccc(NC(=O)Cc2ccccc2)c1	< 4.52		
O=C(Nc1ccccn1)c1cccc(N2C(=O)c3ccccc3C2=O)c1	5.90	59.5	
O=C(Nc1ccccc1F)c1cccc(N2C(=O)c3ccccc3C2=O)c1	5.98	49.9	
Cc1cccc(C(=O)Nc2cccc(NC(=O)c3cccc(Cl)c3)c2)c1	< 4.52		
O=C(Nc1cccc(NC(=O)c2ccc3c(c2)OCO3)c1)c1cccc(Cl)c1	< 4.52		
COc1ccccc1C(=O)Nc1cccc(NC(=O)C23CC4CC(CC(C4)C2)C3)c1	< 4.52		
COCC(=O)Nc1cccc(NC(=O)c2cccc(Cl)c2)c1	< 4.52		
O=C(Nc1cccc(O)c1)c1cccc(N2C(=O)c3ccccc3C2=O)c1	5.11	48.1	
COc1ccccc1C(=O)Nc1cccc(NC(=O)c2ccc(Cl)cc2)c1	< 4.52		
O=C(Cc1ccccc1)Nc1cccc(NC(=O)c2cccc(Cl)c2)c1	< 4.52		
O=C(Nc1cccc(NC(=O)c2ccco2)c1)c1cccc(Cl)c1	5.35	49.3	
COc1ccccc1C(=O)Nc1cccc(NC(=O)c2ccccc2Cl)c1	< 4.52		
O=C(Nc1cccc(NC(=O)c2cccc(Cl)c2)c1)c1ccc(F)cc1	< 4.52		

Structure (SMILES)	pIC50 [1]	% Glu Max [2] [%]	pIC50 [3]
COc1cc(NC(=O)c2cccc(N3C(=O)c4ccccc4C3=O)c2)cc(OC)c1	5.45	76.2	
O=C(Nc1cccc(Cl)c1)c1cccc(N2C(=O)c3ccccc3C2=O)c1	5.75	26.4	
COc1ccccc1NC(=O)c1cccc(N2C(=O)c3ccccc3C2=O)c1	< 4.52	86	
COc1ccccc1C(=O)Nc1cccc(NC(=O)c2cccc(C#N)c2)c1	5.74	3.22	
O=C(Nc1cccc(NC(=O)c2cccc(C(F)(F)F)c2)c1)c1cccc(Cl)c1	< 4.52		
COc1ccccc1C(=O)Nc1cccc(NC(=O)c2cccc(F)c2)c1	5.19	25.8	
COc1ccccc1C(=O)Nc1cccc(NC(=O)c2cccc(C)c2)c1	5.87	3.82	
COc1ccccc1C(=O)Nc1cccc(NC(=O)c2cc(Cl)cc(Cl)c2)c1	< 4.52		
O=C(Nc1cccc(NC(=O)c2ccccc2Cl)c1)c1cccc(Cl)c1	5.58	8.78	
COc1ccccc1C(=O)Nc1cccc(NC(=O)C2CCCCC2)c1	< 4.52		
CC(C)C(=O)Nc1cccc(NC(=O)c2cccc(Cl)c2)c1	5.24	26.9	
O=C(Nc1cccc(NC(=O)c2ccc(Cl)c(Cl)c2)c1)c1cccc(Cl)c1	< 4.52		
O=C(Nc1cccc(NC(=O)c2cccc(Cl)c2)c1)c1cccc(F)c1	< 4.52		
COc1ccccc1C(=O)Nc1cccc(NC(=O)c2cccc(C(F)(F)F)c2)c1	4.97	26.1	
O=C(Nc1cccc(NC(=O)C2CCCC2)c1)c1cccc(Cl)c1	< 4.52		
O=C(Nc1cccc(NC(=O)C2CC2c2ccccc2)c1)c1cccc(Cl)c1 (stereo not drawn)	< 4.52		
O=C(Nc1cccc(NC(=O)C2CCC2)c1)c1cccc(Cl)c1	5.28	44	
COc1ccccc1C(=O)Nc1cccc(NC(C)=O)c1	< 4.52		
COc1ccccc1C(=O)Nc1cccc(NC(=O)c2ccc3c(c2)OCO3)c1	< 4.52		
COc1ccccc1C(=O)Nc1cccc(NC(=O)C2CC2c2ccccc2)c1 (stereo not drawn)	< 4.52		
O=C(Nc1cccc(NC(=O)c2cccc(Cl)c2)c1)c1ccc(Cl)cc1	< 4.52		
O=C(Nc1ccc(F)cc1)c1cccc(N2C(=O)c3ccccc3C2=O)c1	< 4.52	73	
O=C(NC1CC1)c1cccc(N2C(=O)c3ccccc3C2=O)c1	< 4.52	68	
COc1ccccc1C(=O)Nc1cccc(NC(=O)c2ccco2)c1	< 4.52		
COc1ccccc1C(=O)Nc1cccc(NC(=O)c2ccc(F)cc2)c1	< 4.52		
